Test results as given in ChEMBL document CHEMBL1131600 (J Med Chem, 1998).
pIC50: −log10 of the molar value.

How the values were obtained:
Assay type in all cases: functional, organism-based
[1] = test system: Plasmodium falciparum; experiment: In vitro antimalarial activity against chloroquine-sensitive Plasmodium falciparum NF54
[2] = test system: Plasmodium falciparum; experiment: In vitro antimalarial activity against chloroquine-sensitive Plasmodium falciparum NF54 in C4alpha-alkylated trioxanes
[3] = test system: Plasmodium falciparum; experiment: In vitro antimalarial activity against chloroquine-sensitive Plasmodium falciparum NF54 in C4beta-stannylmethyl trioxanes

Row | Molecule | pIC50 ([1]; Plasmodium falciparum) | pIC50 [2] | pIC50 ([3]; Plasmodium falciparum) | also measured
1 | CO[C@H]1O[C@@]2(C)OOC13[C@H](CCOP(=O)(Oc1ccccc1)Oc1ccccc1)CCC[C@@H]3C[C@@H]2C | 8.16 | – | – | –
2 | CO[C@H]1O[C@]2(C)CC[C@H]3CCC[C@@H](CCO)C31OO2 | 6.92 | – | – | –
3 | CO[C@H]1O[C@@]2(C)OOC13[C@H](CCO)CCC[C@@H]3CC2Cc1ccccc1 (some centres undefined) | – | 5.77 | 8.08 | –
4 | CO[C@H]1O[C@@]2(C)OOC13CCCC[C@@H]3CC2CO (some centres undefined) | – | < 5.60 | 6.64 | –
5 | CO[C@H]1O[C@]2(C)CC[C@H]3CCC[C@@H](CCOCc4ccccc4)C31OO2 | 7.60 | – | – | –
6 | CO[C@H]1O[C@@]2(C)OOC13CCCC[C@@H]3CC2Cc1ccc(COCc2ccc(F)cc2)cc1 (some centres undefined) | 6.62 | – | – | –
7 | CO[C@H]1O[C@@]2(C)OOC13CCCC[C@@H]3C[C@@H]2CO | 6.64 | – | – | –
8 | CO[C@H]1O[C@@]2(C)OOC13CCCC[C@@H]3CC2Cc1ccc(CO)cc1 (some centres undefined) | – | < 5.60 | 6.22 | –
9 | CO[C@H]1O[C@@]2(C)OOC13CCCC[C@@H]3C[C@@H]2Cc1ccc(CO)cc1 | 6.22 | – | – | –
10 | CO[C@H]1O[C@@]2(C)OOC13[C@H](CCO)CCC[C@@H]3CC2C (some centres undefined) | – | 5.89 | 8.11 | –
11 | CO[C@H]1O[C@@]2(C)OOC13CCCC[C@@H]3CC2c1ccccc1 (some centres undefined) | – | < 5.60 | 5.70 | –
12 | CO[C@H]1O[C@@]2(C)OOC13[C@H](CCOCc1ccccc1)CCC[C@@H]3C[C@@H]2C | 7.96 | – | – | –
13 | CO[C@H]1O[C@]2(C)CC[C@H]3CCC[C@@H](CCOCc4ccc(F)cc4)C31OO2 | 7.51 | – | – | –
14 | CO[C@H]1O[C@@]2(C)OOC13[C@H](CCOCc1ccc(F)cc1)CCC[C@@H]3C[C@@H]2C | 7.89 | – | – | –
15 | CO[C@H]1O[C@@]2(C)OOC13CCCC[C@@H]3C[C@@H]2COCc1ccc(F)cc1 | 7.72 | – | – | –
16 | CO[C@H]1O[C@@]2(C)OOC13CCCC[C@@H]3CC2Cc1ccccc1 (some centres undefined) | – | < 5.60 | 6.51 | –
17 | CO[C@H]1O[C@@]2(C)OOC13[C@H](CCO)CCC[C@@H]3CC2C[Si](C)(C)C (some centres undefined) | – | < 5.60 | 6.62 | –
18 | CO[C@H]1O[C@@]2(C)OOC13[C@H](CCO)CCC[C@@H]3C[C@@H]2C | 8.11 | – | – | –
19 | 2-((2S,6R,9S,12S)-12-Methoxy-9-methyl-8-trimethylstannanylmethyl-10,11,13-trioxa-tricyclo[7.2.2.0 1,6 ]tridec-2-yl)-ethanol | – | – | – | pIC50 [3]: < 5.60
20 | ((6R,9S,12S)-12-Methoxy-9-methyl-10,11,13-trioxa-tricyclo[7.2.2.01,6]tridec-8-ylmethyl)-trimethyl-stannane | – | – | – | pIC50 [1]: < 5.60
21 | ((6R,9S,12S)-12-Methoxy-9-methyl-10,11,13-trioxa-tricyclo[7.2.2.01,6]tridec-8-ylmethyl)-triphenyl-stannane | – | – | – | pIC50 [1]: < 5.60
22 | Tributyl-((6R,9S,12S)-12-methoxy-9-methyl-10,11,13-trioxa-tricyclo[7.2.2.01,6]tridec-8-ylmethyl)-stannane | – | – | – | pIC50 [1]: < 5.60
